Test results taken from article PMC12400753 (Respiratory Research, 2025).

Columns and labels:
[1] = system: primary human lung fibroblasts; test: LPA-induced chemotaxis assay; assay type: cell-based; details: 1 µM LPA chemoattractant; 6 h preincubation; read-out: IC50 inhibition of fibroblast chemotaxis
Description: Chemotaxis assay: Primary human lung fibroblasts were obtained from ATCC (Cat # PCS-201-020) and cultured in fibroblast media as per ATCC directions. Fibroblasts were serum starved overnight in basal fibroblast media. Cells were then lifted using CellStripper, centrifuged at 500 x g for 10 min, then resuspended in basal media. […] The receiving chamber contained 1 µM LPA. Chemotaxis was quantified as per Cell Biolabs, Inc instructions on a Flexstation 3 (Molecular Devices).

[2] = system: bleomycin-induced lung fibrosis; test: Systemic (subcutaneous) bleomycin mouse model; assay type: in vivo; details: 3 mg/kg oral once a day, therapeutic
Description: Mice were injected subcutaneously with bleomycin (0.1 units/day), on a schedule of 5 days on/2 days off to induce fibrosis. […] Dosing was maintained until study end, at which point lung tissues were collected. The right lobe was snap frozen and processed for collagen analysis for hydroxyproline; the left lobe was sectioned and stained with Masson’s trichrome stain for histological assessment of tissue collagen. This study was conducted by Inotiv (West Lafayette, IN). Forty-four female 9 week old C57Bl/6 mice (Jackson Labs) were provided standard chow (Envigo, Cat #: 8940), housed under standard conditions, and allowed to acclimate for > 3 days prior to enrollment. Prior to start, mice were weighed and placed into balanced enrollment groups. Four days prior to start, mice were anesthetized, dorsal fur shaved and removed with depilatory agent, and two circles (~ 1.5 cm diameter) heat-branded on their dorsal abdomen. Fur was removed as needed for the balance of the study to ensure consistent location of s.c. injections. Beginning on day 0 and through day 26, mice were anesthetized with isoflurane and administered 0.9% NaCl or bleomycin injections (100 µl/injection, s.c.) into each of the circles (2 injections/mouse/d) on a 5 day on/2 day off paradigm. Mice were administered 0.9% NaCl (vehicle) or bleomycin (0.1 U) with bleomycin doses split evenly between the two circles (i.e., 0.05 U/circle). […] Weight measures and health observations were made daily. On day 27, mice were dosed to enable trough blood/plasma collection on day 28, which was collected via retro-orbital approach under isoflurane anesthesia. Following blood collection, mice were administered vehicle or compound on a timetable as appropriate to enable a peak blood collection 2 h postdose. At the time of sacrifice, mice were anesthetized with pentobarbital, a tracheotomy performed and interfaced with a positive pressure ventilator providing 100% O2. The mouse’s chest was then opened, and a needle interfaced with an infusion pump introduced to the right ventricle. […] The lungs were then harvested, immediately immersed in ice-cold 0.9% NaCl, gross dissected and subjected to morphological analyses. Tissue samples will be processed for biochemical and/or histological analyses as described below. Masson’s Trichrome Blue stained slides were subjected to histological analyses using color segmentation analysis for lung fibrosis. Frozen lung samples underwent hydroxyproline analysis as described below. Lung tissue processing – following exsanguination and flushing of the pulmonary circulation to clear blood, the lungs were removed, placed in ice-cold 0.9% NaCl and processed on wet ice. Extraneous tissue was removed and whole lung weight recorded. […]

[3] = system: human precision cut lung slices from donors with pulmonary fibrosis; test: Fibrotic marker mRNA (qPCR) in cryopreserved PCLS from donors with pulmonary fibrosis; assay type: cell-based; details: PIPE-791, 6 days, 6 donors
[4] = system: primary human lung fibroblasts; test: TGFβ1- or LPA-induced myofibroblast transformation (αSMA, COL1A1); assay type: cell-based; details: PIPE-791 1 µM
Description: TGFβ1 was used at 5 ng/mL. In addition to COL1A1 immunostaining, cells were co-immunostained with aSMA followed by a goat anti-rabbit Alexa647 secondary antibody.

[5] = system: fresh human PCLS from donors with pulmonary fibrosis; test: Secreted biomarkers in fresh PCLS from pulmonary fibrosis donors; assay type: cell-based; details: PIPE-791 0.03, 0.3, 3 µM; 48 h
Excerpt: Translationally, biomarker-based strategies for assessing aberrant extracellular matrix deposition and remodeling in the context of disease pathogenesis and compound efficacy have become increasingly relevant. For the PCLS gene expression studies, slices were preserved through slow cryogenic freezing of tissue. While this affords experimental flexibility, some physiological relevance is lost over the course of cryostorage and recovery (e.g., immune cell loss). To circumvent this, fresh PCLS from two donors with pulmonary fibrosis were generated and immediately placed into culture. For this experiment, well-established, secreted fibrotic markers that encompass fibrogenesis and tissue remodeling were measured: C3M (a marker of collagen III degradation and an indicant of ECM remodeling and tissue turnover), Pro-C3 (a neo-epitope fragment of collagen III and a marker of active fibrogenesis and fibrosis progression), and Pro-C6 (a neoepitope fragment of COLVIA3 and a marker of remodeling and wound healing). […] Media was then removed and analyzed for biomarker concentration.
PCLS cultures for secreted biomarker analysis were performed at Fraunhofer ITEM (Hanover, Germany) using tissue from pathologist qualified, pulmonary fibrosis patients. Tissue from individual donors and 2 lung regions were collected in accordance with policies approved by the Hanover Medical School ethics committee. Only fibrotic tissue was used for experiments. Region 1 consisted of subpleural tissue and Region 2 of central tissue. For each, lung lobes were filled with low-melting agarose then sectioned at 300 μm on a Krumdiek tissue slicer as described in Hesse et al., 2022. Slices were incubated in DMEM containing penicillin and streptomycin, two slices per region were used. […] Supernatant was collected and shipped to Nordic Bioscience (Herlev, Denmark) for C3M, Pro-C6 and Pro-C3 analysis. Donor information can be found in Additional File 1.

COc1ccc(NC(=O)N(c2ccccc2C(C)C)C2CCC(C(=O)O)CC2)c(OC(F)F)n1 (centres unmarked) [PIPE-791]
IC50 [1]: 1.5 nM
reduction in lung hydroxyproline compared to bleomycin/vehicle [2]: 40%
tissue collagen fraction (TCF), trichrome ([2]; p = 0.0017): nearly full reduction
slice health as measured by LDH in the media [3]: no significant effect on slice health
COL1A1 induction ([4]; LPA stimulation): significantly inhibited
αSMA expression ([4]; LPA stimulation): significantly inhibited
COL1A1 induction ([4]; TGFβ1 stimulation): significantly inhibited
αSMA expression ([4]; TGFβ1 stimulation): significantly inhibited
secreted C3M [5]: reduction in C3M secretion with PIPE-791 at all concentrations tested, with significance observed at 0.03 and 3 µM
secreted Pro-C3 [5]: did not observe a significant decrease
secreted Pro-C6 [5]: significant reduction in secreted Pro-C6 at all concentrations
